The text below walks through data of US12115178B2, “Acylated active agents and methods of their use for the treatment of autoimmune disorders” (Flagship Pioneering Innovations V, Inc., priority 2018, dated 2024).

What all share (format): in vitro ADME
Series [1] is described as follows: Assay 3. In vitro Colonic Material Stability Assay. As to the method: Assay 3. In vitro Colonic Material Stability Assay. This assay was used to assess the stability of an acylated active agent in a large intestine. All experiments were performed in an anaerobic chamber containing 90% nitrogen, 5% hydrogen and 5% carbon dioxide. Colonic material was resuspended as a slurry (15% w/v final concentration) in pre-reduced, anaerobically sterilized dilution blanks (Anaerobe Systems AS-908). The colonic material was then inoculated into 96 well plates containing YCFAC media (Anaerobe Systems AS-680) or other suitable media (6.7 μL slurry into 1 mL total media). Compounds or groups of compounds were added to each individual well to reach a final analyte concentration of 1 or 10 μM, and the material was mixed by pipetting. Sample was removed after set timepoints (0, 120, 240, 480, 1440, 2880 minutes after initiation of the assay), quenched with acetonitrile containing internal standard, and analyzed by LC/MS.

Series [2] is described as follows: Assay 2. Stability in Simulated Intestinal Fluid (SIF). The following applies: SIF pH 6.7 with pancreatin, 1 μM, 37° C. As to the method: Assay 2. Stability of acylated active agents in Simulated Intestinal Fluid (SIF). This assay was used to assess the stability of an acylated active agent in a small intestine. Phosphate buffer was prepared by dissolving 0.42 g of sodium hydroxide pellets and 3.95 g of monobasic sodium phosphate monohydrate and 6.19 g of sodium chloride in ultrapure water (MilliQ®, Millipore Sigma, Darmstadt, Germany). The pH was adjusted to 6.7 using aq. HCl and aq. NaOH, as necessary, and the solution was diluted with ultrapure water to produce 1 L of the pH 6.7 buffer. 112 mg FaSSIF powder (Biorelevant™, London, UK) was dissolved in 50 mL of the pH 6.7 buffer. 2 to 3 mL of the resulting solution were then added to 500 mg pancreatin (Millipore Sigma, Darmstadt, Germany). The resulting mixture was agitated by finger tapping the vessel containing the mixture until milky suspension formed. At this time, the remainder of the 50 mL FaSSiF/pH 6.7 buffer solution was added. The resulting suspension was flipped upside down 10 times to produce SIF, which was used fresh. Test compounds were dissolved in DMSO stock to 1 mM. An aliquot of the DMSO stock solution was removed and diluted in the SIF media in 15 mL falcon tubes to produce a mixture with a tested compound concentration of 1 μM. A 1 mL aliquot was immediately removed and diluted once with 1 volume of acetonitrile for T0 timepoint. The mixture was sealed and agitated at 37° C. in an incubator. Aliquots (1 mL) were removed at regular intervals and immediately quenched by the addition of 1 volume of acetonitrile. The resulting samples were analyzed by LC/MS to determine degradation rates.

The nature of series [3]: Assay 1. Stability in Simulated Gastric Fluid (SGF). The conditions noted are these: SGF pH 1.6 with pepsin, 1 μM, 37° C. As to the method:
Assay 1. Stability of acylated active agents in Simulated Gastric Fluid (SGF). This assay was used to assess the stability of an acylated active agent in a stomach.
Medium was prepared by dissolving 2 g of sodium chloride in 0.6 L in ultrapure water (MilliQ®, Millipore Sigma, Darmstadt, Germany). The pH was adjusted to 1.6 with 1N hydrochloric acid, and the volume was then adjusted to 1 L with purified water.
60 mg FaSSIF powder (Biorelevant™, London, UK) were dissolved in 500 mL buffer (above). Pepsin was added (0.1 mg/mL) (Millipore Sigma, Darmstadt, Germany), and the solution was stirred. The resulting SGF media were used fresh for each experiment.
Test compounds were dissolved in DMSO stock to 1 mM. An aliquot of the DMSO stock solution was removed and diluted in the SGF Media in 15 mL falcon tubes to generate a total compound concentration of 1 μM. A 1 mL aliquot was immediately removed and diluted once with 1 volume of acetonitrile for T0 timepoint. The mixture was sealed and mixed at 37° C. in an incubator. Aliquots (1 mL) were removed at regular intervals and immediately quenched by the addition of 1 volume of acetonitrile. The resulting samples were analyzed by LC/MS to determine degradation rates in SGF.

Where [4] appears, read: colonic material slurry, anaerobic, 1 or 10 μM.

Each structure is given as a SMILES string.

For the compound `CC(=O)O[C@@H]1[C@H](OC(C)=O)C=C(C(=O)O)C[C@H]1OC(C)=O` [Compound 215, (3R,4S,5R)-3,4,5-triacetoxycyclohex-1-ene-1-carboxylic acid], the “Assay 3 (% Remaining at 24 h)” value in series [1] (setting [4]) is “B (25-75% of the tested compound remaining)”.

Take `CCC(=O)Oc1cc(OC(=O)CC)c2c(=O)c(OC(=O)CC)c(-c3ccc(OC(=O)CC)c(OC(=O)CC)c3)oc2c1` [Compound 14, [4-[4-oxo-3,5,7-tri(propanoyloxy)chromen-2-yl]-2-propanoyloxy-phenyl] propanoate]: in series [2], the “Assay 2 (SIF) (% @ Remaining 4 hours)” value is on record as “A (<25% of the tested compound remaining)”. For the same compound, the “Assay 3 (% Remaining at 24 h)” value in series [1] (setting [4]) is on record as “C (>75% of the tested compound remaining)”. Regarding `O=C(CCc1c[nH]c2ccccc12)Oc1ccc2c(c1)oc(=O)c1cc(OC(=O)CCc3c[nH]c4ccccc34)c(OC(=O)CCc3c[nH]c4ccccc34)cc12` [Compound 208, 8,9-bis({[3-(1H-indol-3-yl)propanoyl]oxy})-6-oxo-6H-benzo[c]chromen-3-yl 3-(1H-indol-3-yl)propanoate], the “Assay 2 (SIF) (% @ Remaining 4 hours)” value in series [2] is recorded as “B (25-75% of the tested compound remaining)”. In series [1] (setting [4]), the “Assay 3 (% Remaining at 24 h)” value was “B (25-75% of the tested compound remaining)”.

For `[2H]C([2H])([2H])C([2H])([2H])CC(=O)O[C@@H]1[C@@H](OC(=O)CC([2H])([2H])C([2H])([2H])[2H])[C@H](Oc2ccc(N)cc2C(=O)O)OC[C@H]1O` [Compound 192, 5-amino-2-{[(2S,3R,4S,5R)-3,4-bis[(3,3,4,4,4-^2H5)butanoyloxy]-5-hydroxyoxan-2-yl]oxy}benzoic acid], in series [1] (setting [4]), the “Assay 3 (% Remaining at 24 h)” value is listed as “B (25-75% of the tested compound remaining)”.

In the case of `CCCC(=O)O[C@@H]1[C@H](OC(=O)CCC)C=C(C(=O)O)C[C@H]1OC(=O)CCC` [Compound 218, (3R,4S,5R)-3,4,5-tris(butanoyloxy)cyclohex-1-ene-1-carboxylic acid], in series [1] (setting [4]), the “Assay 3 (% Remaining at 24 h)” value is given as “B (25-75% of the tested compound remaining)”. Take `CCCC(=O)Oc1cc(OC(=O)CCC)c2c(c1)O[C@H](c1cc(OC(=O)CCC)c(OC(=O)CCC)c(OC(=O)CCC)c1)[C@H](OC(=O)c1cc(OC(=O)CCC)c(OC(=O)CCC)c(OC(=O)CCC)c1)C2` [Compound 198, [(2R,3R)-5,7-di(butanoyloxy)-2-[3,4,5-tri(butanoyloxy)phenyl]chroman-3-yl] 3,4,5-tri(butanoyloxy)benzoate]: the “Assay 3 (% Remaining at 24 h)” value in series [1] (Run 1, colonic material) is given as “C (>75% of the tested compound remaining)”; in series [1] (Run 2, colonic material), “C (>75% of the tested compound remaining)”; in series [1] (Run 3, colonic material), “B (25-75% of the tested compound remaining)”. Turning to `C[C@@H]1OC(OC(=O)CCc2c[nH]c3ccccc23)[C@H](OC(=O)CCc2c[nH]c3ccccc23)[C@H](OC(=O)CCc2c[nH]c3ccccc23)[C@H]1OC(=O)CCc1c[nH]c2ccccc12` (stereo partly drawn) [Compound 147, (3R,4R,5S,6S)-3,4,5-tris({[3-(1H-indol-3-yl)propanoyl]oxy})-6-methyloxan-2-yl 3-(1H-indol-3-yl)propanoate], in series [1] (setting [4]), the “Assay 3 (% Remaining at 24 h)” value was “A (<25% of the tested compound remaining)”. On to `CCC(=O)O[C@@H]1[C@H](OC(=O)CC)C=C(C(=O)O)C[C@H]1OC(=O)CC` [Compound 217, (3R,4S,5R)-3,4,5-tris(propanoyloxy)cyclohex-1-ene-1-carboxylic acid], for which, in series [1] (setting [4]), the “Assay 3 (% Remaining at 24 h)” value is reported as “B (25-75% of the tested compound remaining)”. `[2H]C([2H])([2H])C([2H])([2H])CC(=O)O[C@@H]1[C@@H](OC(=O)CC([2H])([2H])C([2H])([2H])[2H])[C@H](Oc2ccc(N)cc2C(=O)O)OC[C@H]1OC(=O)CC([2H])([2H])C([2H])([2H])[2H]` [Compound 189, 5-amino-2-{[(2S,3R,4S,5R)-3,4,5-tris[(3,3,4,4,4-^2H5)butanoyloxy]oxan-2-yl]oxy}benzoic acid]: the “Assay 3 (% Remaining at 24 h)” value in series [1] (setting [4]) is reported as “B (25-75% of the tested compound remaining)”. Take `O=C(CCc1c[nH]c2ccccc12)O[C@@H]1[C@H](OC(=O)CCc2c[nH]c3ccccc23)C=C(C(=O)O)C[C@H]1OC(=O)CCc1c[nH]c2ccccc12` [Compound 216, (3R,4S,5R)-3,4,5-tris({[3-(1H-indol-3-yl)propanoyl]oxy})cyclohex-1-ene-1-carboxylic acid]: the “Assay 1 (SGF) (% Remaining @ 1 hour)” value in series [3] is recorded as “B (25-75% of the tested compound remaining)”. Moreover, in series [2], the “Assay 2 (SIF) (% @ Remaining 4 hours)” value is on record as “B (25-75% of the tested compound remaining)”. With `CCCC(=O)Oc1ccc2c(c1)oc(=O)c1cc(OC(=O)CCC)c(OC(=O)CCC)cc12` [Compound 210, 8,9-bis(butanoyloxy)-6-oxo-6H-benzo[c]chromen-3-yl butanoate], in series [1] (setting [4]), the “Assay 3 (% Remaining at 24 h)” value is “A (<25% of the tested compound remaining)”. With `CCC(=O)O[C@@H]1[C@@H](OC(=O)CC)[C@@H](OC(=O)CC)CO[C@H]1O` [Compound 127, (3S,4S,5R,6R)-6-hydroxy-4,5-bis(propanoyloxy)oxan-3-yl propanoate], the “Assay 1 (SGF) (% Remaining @ 1 hour)” value in series [3] is on record as “C (>75% of the tested compound remaining)”. In addition, the “Assay 2 (SIF) (% @ Remaining 4 hours)” value in series [2] was “B (25-75% of the tested compound remaining)”. The like results for `CCC(=O)O[C@@H]1[C@@H](OC(=O)CC)[C@H](Oc2ccccc2C(=O)O)OC[C@@H]1OC(=O)CC` [Compound 26, 2-(((2S,3R,4S,5S)-3,4,5-tris(propionyloxy)tetrahydro-2H-pyran-2-yl)oxy)benzoic acid] were, in that order, “C (>75% of the tested compound remaining)” and “A (<25% of the tested compound remaining)”. The like results for `CCCC(=O)Oc1ccc(C2CC(=O)c3c(OC(=O)CCC)cc(OC(=O)CCC)cc3O2)cc1` (centres unmarked) [Compound 10, [4-[5,7-di(butanoyloxy)-4-oxo-chroman-2-yl]phenyl] butanoate] were, in that order, “B (25-75% of the tested compound remaining)” and “A (<25% of the tested compound remaining)”.

As for `CCC(=O)OC[C@H]1OC(O)[C@H](OC(=O)CC)[C@@H](OC(=O)CC)[C@@H]1OC(=O)CC` (stereo partly drawn) [Compound 110, [(2R,3R,4S,5R)-6-hydroxy-3,4,5-tris(propanoyloxy)oxan-2-yl]methyl propanoate], the “Assay 1 (SGF) (% Remaining @ 1 hour)” value in series [3] was “C (>75% of the tested compound remaining)”. The “Assay 2 (SIF) (% @ Remaining 4 hours)” value in series [2] is reported as “A (<25% of the tested compound remaining)”. As to `CC(=O)Oc1cc(OC(C)=O)c2c(c1)O[C@H](c1cc(OC(C)=O)c(OC(C)=O)c(OC(C)=O)c1)[C@H](OC(=O)c1cc(OC(C)=O)c(OC(C)=O)c(OC(C)=O)c1)C2` [Compound 197, [(2R,3R)-5,7-diacetoxy-2-(3,4,5-triacetoxyphenyl)chroman-3-yl] 3,4,5-triacetoxybenzoate], the “Assay 3 (% Remaining at 24 h)” value in series [1] (setting [4]) is listed as “A (<25% of the tested compound remaining)”. As to `CC(=O)Oc1cc(C(=O)O)cc(OC(C)=O)c1OC(C)=O` [Compound 199, 3,4,5-triacetoxybenzoic acid], in series [3], the “Assay 1 (SGF) (% Remaining @ 1 hour)” value is reported as “C (>75% of the tested compound remaining)”. For the same compound, the “Assay 2 (SIF) (% @ Remaining 4 hours)” value in series [2] was “B (25-75% of the tested compound remaining)”. The corresponding values for `CCCC(=O)O[C@@H]1[C@@H](OC(=O)CCC)[C@@H](OC(=O)CCc2c[nH]c3ccccc23)OC[C@@H]1OC(=O)CCC` [Compound 81, (2R,3R,4S,5S)-4,5-bis(butanoyloxy)-2-{[3-(1H-indol-3-yl)propanoyl]oxy}oxan-3-yl butanoate] are “B (25-75% of the tested compound remaining)” and “A (<25% of the tested compound remaining)”.
